Source: PubChem BioAssay (NCI)
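Cultured in 96-well plates, cells were exposed to test compound for 48 hours across five concentrations. TGI: concentration producing complete growth inhibition.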

Key:
Test in all cases: inhibition of tumour cell growth, NCI panel, 48 h
[1] = test system: HT29 colon
[2] = test system: SF-539 CNS
[3] = test system: HCT-15 colon
[4] = test system: IGROV1 ovarian
[5] = test system: SK-MEL-2 melanoma
[6] = test system: HCT-116 colon
[7] = test system: RPMI-8226 leukemia
[8] = test system: OVCAR-5 ovarian
[9] = test system: K-562 leukemia
[10] = test system: SNB-75 CNS
[11] = test system: UACC-62 melanoma
[12] = test system: M14 melanoma
[13] = test system: HL-60(TB) leukemia
[14] = test system: SN12C renal
[15] = test system: MCF7 breast
[16] = test system: SR leukemia

Row | SMILES | TGI [1] | TGI [2] | TGI [3] | TGI [4] | TGI [5] | TGI [6] | TGI [7] | TGI [8] | TGI [9] | TGI [10] | TGI [11] | TGI [12] | TGI [13] | TGI [14] | TGI [15] | TGI [16]
1 | OC12c3ccccc3C3CCC4(OCCO4)C3C1c1ccccc12 (configuration not stated) | > 100 µM | > 100 µM | > 100 µM | > 100 µM | > 100 µM | > 100 µM | > 100 µM | > 100 µM | > 100 µM | > 100 µM | > 100 µM | > 100 µM | > 100 µM | > 100 µM |  | 
2 | N#CCN(CC#N)C1CC=CCC1N(CC#N)CC#N (configuration not stated) | > 100 µM | > 100 µM | > 100 µM | > 100 µM | > 100 µM | > 100 µM | > 100 µM | > 100 µM | > 100 µM |  | > 100 µM | > 100 µM | > 100 µM | > 100 µM | > 100 µM | 
3 | NC(=O)c1c(NC=O)ncn1C1OCC(O)C(O)C1O (configuration not stated) | > 100 µM | > 100 µM | > 100 µM | > 100 µM | > 100 µM | > 100 µM | > 100 µM | > 100 µM | > 100 µM | > 100 µM | > 100 µM |  | > 100 µM | > 100 µM |  | > 100 µM
4 | COc1ccc(C(=O)N/N=C/c2c(C)n(C)n(-c3ccccc3)c2=O)cc1 | > 100 µM | > 100 µM | > 100 µM | > 100 µM | > 100 µM | > 100 µM | > 100 µM |  | > 100 µM | > 100 µM | > 100 µM | > 100 µM | > 100 µM | > 100 µM |  | > 100 µM
5 | CC(C)(C)OC(=O)Cn1ncn(NC(=O)Cc2ccccc2)c1=O | > 10 µM | > 10 µM | > 10 µM | > 10 µM |  | > 10 µM |  | > 10 µM | > 10 µM |  | > 10 µM | > 10 µM |  | > 10 µM | > 10 µM | > 10 µM
6 | CC(C)(C)OC(=O)c1cccnc1/C=N/O | > 100 µM | > 100 µM | > 100 µM | > 100 µM | > 100 µM | > 100 µM |  | > 100 µM | > 100 µM | > 100 µM | > 100 µM | > 100 µM | > 100 µM | > 100 µM |  | > 100 µM
7 | CC1NC(=O)C2=C1C(N)=NC(=O)C2 (configuration not stated) |  | > 100 µM | > 100 µM | > 100 µM | > 100 µM | > 100 µM | > 100 µM | > 100 µM | > 100 µM | > 100 µM | > 100 µM | > 100 µM |  | > 100 µM |  | > 100 µM
8 | COC1CCC(=O)N1CN(C(C)=O)c1ccc(C)cc1 (configuration not stated) | > 100 µM | > 100 µM | > 100 µM |  | > 100 µM | > 100 µM | > 100 µM | > 100 µM | > 100 µM | > 100 µM | > 100 µM | > 100 µM |  | > 100 µM | > 100 µM | > 100 µM
9 | C#CC1(O)CCC2[C@@H]3CCc4cc(Oc5nc(F)nc(-c6c7ccccc7cn6C)n5)ccc4C3CC[C@@]21C (some centres not stated) | > 100 µM | > 100 µM | > 100 µM |  | > 100 µM | > 100 µM | > 70.7 µM | > 100 µM | > 100 µM | > 100 µM | > 100 µM | > 100 µM | > 100 µM | > 100 µM |  | > 72.6 µM
10 | COc1cc2c(cc1C1=NC(C)(C)CO1)OCO2 | > 100 µM | > 100 µM | > 100 µM | > 100 µM | > 100 µM | > 100 µM | > 100 µM |  | > 100 µM | > 100 µM | > 100 µM | > 100 µM | > 100 µM | > 100 µM |  | > 100 µM
11 | COc1ccc(-n2c(=O)n(-c3ccccc3)c(=O)n2-c2ccc(OC)cc2)cc1 |  | > 100 µM | > 100 µM | > 100 µM | > 100 µM | > 100 µM | > 100 µM | > 100 µM | > 100 µM | > 100 µM | > 100 µM | > 100 µM | > 100 µM | > 100 µM | > 100 µM | 
12 | CCCN(CCC)c1c([N+](=O)[O-])cc(C(=O)N(CCO)CCO)cc1[N+](=O)[O-] | > 100 µM | > 100 µM | > 100 µM | > 100 µM | > 100 µM | > 100 µM | > 100 µM | > 100 µM | > 100 µM | > 100 µM |  | > 100 µM | > 100 µM | > 100 µM |  | 
13 | N#Cc1c(-c2ccc(Cl)cc2)c2c(N=Nc3c(O)ccc4ccccc34)[nH]nc2[nH]c1=O | 1.87 µM | 1.37 µM | 2.09 µM | 1.14 µM | 0.943 µM | 1.62 µM |  | 2.73 µM | > 20.7 µM |  | 0.324 µM | 0.563 µM |  | 2.05 µM | 0.982 µM | 
14 | S=C(N1CCN(c2cccc(Cl)c2)CC1)N1CCN(c2cccc(Cl)c2)CC1 | > 100 µM |  | > 100 µM | > 100 µM | > 100 µM | > 100 µM | > 100 µM | > 100 µM | > 100 µM |  | > 100 µM | > 100 µM |  |  | > 100 µM | 32.4 µM
15 | CC(=O)N(O)Cc1ccccc1 | > 100 µM | > 100 µM | > 100 µM | > 100 µM |  | > 100 µM | > 100 µM | > 100 µM | > 100 µM | > 100 µM | > 100 µM | > 100 µM | > 100 µM | > 100 µM |  | > 100 µM
16 | CCOC(=O)C1([Se]c2ccccc2)CCCC1=O (configuration not stated) | > 100 µM | 43.6 µM | 25.9 µM | 78.4 µM | > 100 µM | 30.9 µM | 55.4 µM | > 100 µM | > 100 µM | 69.1 µM | 35.2 µM | 47.2 µM | 23.5 µM | 30.5 µM |  | 47.5 µM
17 | O=c1[nH]c(=O)n(C2OC(CO)C(O)C2O)cc1OCC(F)(F)F (configuration not stated) | > 100 µM | > 100 µM | > 100 µM | > 100 µM | > 100 µM | > 100 µM | > 100 µM | > 100 µM | > 100 µM | > 100 µM | > 100 µM | > 100 µM | > 100 µM | > 100 µM |  | > 100 µM
